According to patent US10479780B2, “Aminopyrazole derivatives” (Chugai Seiyaku Kabushiki Kaisha, priority 2015, dated 2019):
pIC50: −log10 of the molar value.

Experiments:
Type in all cases: biochemical
[1] = biological target: T1, human Lck enzyme (Homo sapiens, UniProt P06239); test: Lck enzyme inhibitory activity (time-resolved fluorometry, biotinylated peptide phosphorylation); settings: read-out: LCK_IC50
T1 construct: purchased Carna Biosciences, Inc. 08-170
Method in brief: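 Readout pairs a europium cryptate-labelled anti-phosphotyrosine antibody with XL665-streptavidin, measured by time-resolved fluorescence. IC50 derived from percent inhibition against untreated controls.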

[2] = biological target: T2, human Src enzyme (Homo sapiens, UniProt P12931); test: Src enzyme inhibitory activity (time-resolved fluorometry, biotinylated peptide phosphorylation); settings: read-out: SRC_IC50
T2 construct: purchased Carna Biosciences, Inc. 08-173
Method in brief: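 Compounds were tested for blocking tyrosine phosphorylation of a biotinylated peptide substrate by recombinant human Src. Phosphorylated product was quantified by time-resolved fluorometry using europium cryptate and XL665 conjugates, and IC50 was calculated against the compound-free control.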

[3] = biological target: T3, human Yes1 enzyme (Homo sapiens, UniProt P07947); test: Yes1 enzyme inhibitory activity (time-resolved fluorometry, biotinylated peptide phosphorylation); settings: read-out: YES_IC50
T3 construct: made in house
Method in brief: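 Inhibition was expressed against a compound-free control to give IC50, using TR-FRET read-out (Eu-cryptate anti-pTyr antibody, streptavidin-XL665).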

T2 sequence (P12931 whole entry): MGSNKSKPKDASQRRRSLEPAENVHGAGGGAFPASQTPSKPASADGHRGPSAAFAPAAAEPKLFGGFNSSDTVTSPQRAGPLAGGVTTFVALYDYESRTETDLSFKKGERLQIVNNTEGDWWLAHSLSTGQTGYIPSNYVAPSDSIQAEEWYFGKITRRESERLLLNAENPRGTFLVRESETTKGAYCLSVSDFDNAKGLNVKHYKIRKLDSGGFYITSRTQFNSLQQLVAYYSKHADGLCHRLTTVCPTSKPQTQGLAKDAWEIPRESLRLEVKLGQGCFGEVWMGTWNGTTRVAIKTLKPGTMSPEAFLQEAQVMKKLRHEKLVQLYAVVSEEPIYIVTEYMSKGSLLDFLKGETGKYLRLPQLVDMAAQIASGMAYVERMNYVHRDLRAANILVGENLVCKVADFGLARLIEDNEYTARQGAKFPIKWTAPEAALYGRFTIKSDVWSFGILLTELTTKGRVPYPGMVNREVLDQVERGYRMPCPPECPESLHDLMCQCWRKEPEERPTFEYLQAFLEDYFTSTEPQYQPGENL
T1 sequence (P06239 whole entry): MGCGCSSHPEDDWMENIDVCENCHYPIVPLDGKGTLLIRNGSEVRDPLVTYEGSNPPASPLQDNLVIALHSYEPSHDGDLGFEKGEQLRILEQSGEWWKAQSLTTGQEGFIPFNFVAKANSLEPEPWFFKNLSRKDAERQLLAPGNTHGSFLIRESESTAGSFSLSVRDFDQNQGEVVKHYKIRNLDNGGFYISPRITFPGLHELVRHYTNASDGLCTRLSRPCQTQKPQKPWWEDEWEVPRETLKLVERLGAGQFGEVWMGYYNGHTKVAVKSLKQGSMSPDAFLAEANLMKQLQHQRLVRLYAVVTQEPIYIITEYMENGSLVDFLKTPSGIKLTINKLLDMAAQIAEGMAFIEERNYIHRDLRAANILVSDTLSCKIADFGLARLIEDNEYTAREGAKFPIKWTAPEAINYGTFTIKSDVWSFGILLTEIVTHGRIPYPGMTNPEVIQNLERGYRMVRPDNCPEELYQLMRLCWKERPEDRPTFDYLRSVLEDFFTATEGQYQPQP
T3 sequence (P07947 whole entry): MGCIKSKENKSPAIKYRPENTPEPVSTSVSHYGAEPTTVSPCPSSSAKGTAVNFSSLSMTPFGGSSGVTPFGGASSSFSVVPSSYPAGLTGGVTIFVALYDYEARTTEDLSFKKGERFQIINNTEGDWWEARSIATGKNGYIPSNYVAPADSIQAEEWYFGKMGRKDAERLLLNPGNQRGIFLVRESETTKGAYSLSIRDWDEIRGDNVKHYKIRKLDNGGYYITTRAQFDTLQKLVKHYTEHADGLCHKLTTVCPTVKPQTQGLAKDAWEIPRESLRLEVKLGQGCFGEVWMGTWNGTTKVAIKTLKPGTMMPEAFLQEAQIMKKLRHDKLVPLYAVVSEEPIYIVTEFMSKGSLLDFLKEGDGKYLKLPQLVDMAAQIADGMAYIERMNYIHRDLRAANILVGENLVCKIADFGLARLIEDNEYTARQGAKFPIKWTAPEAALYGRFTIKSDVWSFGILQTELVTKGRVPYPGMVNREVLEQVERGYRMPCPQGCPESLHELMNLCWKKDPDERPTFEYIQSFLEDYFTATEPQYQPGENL

pIC50 [1]	pIC50 [2]	pIC50 [3]	SMILES
6.74	6.09	8.40	Cc1cc(-n2ncc(C(=O)c3cc4cc(OC(F)F)c(N5C(=O)NC(C)(C)C5=O)cc4[nH]3)c2N)ccc1Oc1ccccc1F [Example 5-1-179, 3-[2-[5-amino-1-[4-(2-fluorophenoxy)-3-methylphenyl]pyrazole-4-carbonyl]-5-(difluoromethoxy)-1H-indol-6-yl]-5,5-dimethylimidazolidine-2,4-dione]
8.20	7.02	9.46	Cc1cc(-n2ncc(C(=O)c3cc4cc(OC5CCN(C(C)C)CC5)c(N5C(=O)NC(C)(C)C5=O)cc4[nH]3)c2N)ccc1Oc1ccccc1F [Example 5-1-180, 3-[2-[5-amino-1-[4-(2-fluorophenoxy)-3-methylphenyl]pyrazole-4-carbonyl]-5-(1-propan-2-ylpiperidin-4-yl)oxy-1H-indol-6-yl]-5,5-dimethylimidazolidine-2,4-dione]
7.39	6.41	8.85	Cc1cc(-n2ncc(C(=O)c3cc4cc(OC(F)F)c(N5CCC(N6CCOCC6)CC5)cc4[nH]3)c2N)ccc1Oc1ccccc1F [Example 5-1-181, [5-amino-1-[4-(2-fluorophenoxy)-3-methylphenyl]pyrazol-4-yl]-[5-(difluoromethoxy)-6-(4-morpholin-4-ylpiperidin-1-yl)-1H-indol-2-yl]methanone]
8.57	7.62	9.77	Cc1cc(-n2ncc(C(=O)c3cc4cc(OC5CCN(C(C)C)CC5)c(N5CCC(N6CCOCC6)CC5)cc4[nH]3)c2N)ccc1Oc1ccccc1F [Example 5-1-182, [5-amino-1-[4-(2-fluorophenoxy)-3-methylphenyl]pyrazol-4-yl]-[6-(4-morpholin-4-ylpiperidin-1-yl)-5-(1-propan-2-ylpiperidin-4-yl)oxy-1H-indol-2-yl]methanone]
8.55	8.31	9.36	Cc1cc(Oc2c(F)cccc2F)ncc1-n1ncc(C(=O)c2cc3cc(OC4CCN(C(C)C)CC4)c(N)cc3[nH]2)c1N [Example 5-1-183, [5-amino-1-[6-(2,6-difluorophenoxy)-4-methylpyridin-3-yl]pyrazol-4-yl]-[6-amino-5-(1-propan-2-ylpiperidin-4-yl)oxy-1H-indol-2-yl] methanone]
8.59	7.96	9.37	Cc1cc(Oc2c(F)cccc2F)ncc1-n1ncc(C(=O)c2cc3cc(OC4CCN(C(C)C)CC4)c(NS(C)(=O)=O)cc3[nH]2)c1N [Example 5-1-184, N-[2-[5-amino-1-[6-(2,6-difluorophenoxy)-4-methylpyridin-3-yl]pyrazole-4-carbonyl]-5-(1-propan-2-ylpiperidin-4-yl)oxy-1H-indol-6-yl] methanesulfonamide]
8.77	8.60	9.44	Cc1cc(Oc2c(F)cccc2F)ncc1-n1ncc(C(=O)c2cc3cc(OC4CCN(C(C)C)CC4)c(N4CCOCC4)cc3[nH]2)c1N [Example 5-1-185, [5-amino-1-[6-(2,6-difluorophenoxy)-4-methylpyridin-3-yl]pyrazol-4-yl]-[6-morpholin-4-yl-5-(1-propan-2-ylpiperidin-4-yl)oxy-1H-indol-2-yl]methanone]
8.89	8.72	9.55	Cc1cc(Oc2c(F)cccc2F)ncc1-n1ncc(C(=O)c2cc3cc(OC4CCN(C(C)C)CC4)c(N4CCOC4=O)cc3[nH]2)c1N [Example 5-1-186, 3-[2-[5-amino-1-[6-(2,6-difluorophenoxy)-4-methylpyridin-3-yl]pyrazole-4-carbonyl]-5-(1-propan-2-ylpiperidin-4-yl)oxy-1H-indol-6-yl]-1,3-oxazolidin-2-one]
8.64	8.49	9.21	Cc1cc(Oc2c(F)cccc2F)ncc1-n1ncc(C(=O)c2cc3cc(OC4CCN(C(C)C)CC4)c(N4CCN(S(C)(=O)=O)CC4)cc3[nH]2)c1N [Example 5-1-187, [5-amino-1-[6-(2,6-difluorophenoxy)-4-methylpyridin-3-yl]pyrazol-4-yl]-[6-(4-methylsulfonylpiperazin-1-yl)-5-(1-propan-2-ylpiperidin-4-yl)oxy-1H-indol-2-yl]methanone]
8.92	8.34	9.52	Cc1cc(Oc2c(F)cccc2F)ncc1-n1ncc(C(=O)c2cc3cc(OC4CCN(C(C)C)CC4)c(N4C(=O)NC(C)(C)C4=O)cc3[nH]2)c1N [Example 5-1-188, 3-[2-[5-amino-1-[6-(2,6-difluorophenoxy)-4-methylpyridin-3-yl]pyrazole-4-carbonyl]-5-(1-propan-2-ylpiperidin-4-yl)oxy-1H-indol-6-yl]-5,5-dimethylimidazolidine-2,4-dione]
8.82	8.48	9.42	Cc1cc(Oc2ccccc2F)ccc1-n1ncc(C(=O)c2cc3cc(OC4CCN(C(C)C)CC4)c(NS(C)(=O)=O)cc3[nH]2)c1N [Example 5-1-189, N-[2-[5-amino-1-[4-(2-fluorophenoxy)-2-methylphenyl]pyrazole-4-carbonyl]-5-(1-propan-2-ylpiperidin-4-yl)oxy-1H-indol-6-yl] methanesulfonamide]
8.89	8.74	9.39	Cc1cc(Oc2ccccc2F)ccc1-n1ncc(C(=O)c2cc3cc(OC4CCN(C(C)C)CC4)c(N4CCOCC4)cc3[nH]2)c1N [Example 5-1-190, [5-amino-1-[4-(2-fluorophenoxy)-2-methylphenyl]pyrazol-4-yl]-[6-morpholin-4-yl-5-(1-propan-2-ylpiperidin-4-yl)oxy-1H-indol-2-yl]methanone]
8.80	8.66	9.32	Cc1cc(Oc2ccccc2F)ccc1-n1ncc(C(=O)c2cc3cc(OC4CCN(C(C)C)CC4)c(N4CCN(S(C)(=O)=O)CC4)cc3[nH]2)c1N [Example 5-1-191, [5-amino-1-[4-(2-fluorophenoxy)-2-methylphenyl]pyrazol-4-yl]-[6-(4-methylsulfonylpiperazin-1-yl)-5-(1-propan-2-ylpiperidin-4-yl)oxy-1H-indol-2-yl]methanone]
9.07	8.96	9.54	Cc1cc(Oc2ccccc2F)ccc1-n1ncc(C(=O)c2cc3cc(OC4CCN(C(C)C)CC4)c(N4CCOC4=O)cc3[nH]2)c1N [Example 5-1-192, 3-[2-[5-amino-1-[4-(2-fluorophenoxy)-2-methylphenyl]pyrazole-4-carbonyl]-5-(1-propan-2-ylpiperidin-4-yl)oxy-1H-indol-6-yl]-1,3-oxazolidin-2-one]
8.89	8.64	9.49	Cc1cc(Oc2ccccc2F)ccc1-n1ncc(C(=O)c2cc3cc(OC4CCN(C(C)C)CC4)c(N4C(=O)NC(C)(C)C4=O)cc3[nH]2)c1N [Example 5-1-193, 3-[2-[5-amino-1-[4-(2-fluorophenoxy)-2-methylphenyl]pyrazole-4-carbonyl]-5-(1-propan-2-ylpiperidin-4-yl)oxy-1H-indol-6-yl]-6,5-dimethylimidazolidine-2,4-dione]
8.92	8.82	9.46	Cc1cc(Oc2ccccc2F)ccc1-n1ncc(C(=O)c2cc3cc(OC4CCN(C(C)C)CC4)c(N4CCC(N5CCOCC5)CC4)cc3[nH]2)c1N [Example 5-1-194, [5-amino-1-[4-(2-fluorophenoxy)-2-methylphenyl]pyrazol-4-yl]-[6-(4-morpholin-4-ylpiperidin-1-yl)-5-(1-propan-2-ylpiperidin-4-yl)oxy-1H-indol-2-yl]methanone]
7.35	6.72	8.89	Cc1cc(-n2ncc(C(=O)c3cc4cc(OC5CCN(C(C)C)CC5)c(F)cc4[nH]3)c2N)ccc1Oc1ccccc1F [Example 5-1-195, [5-amino-1-[4-(2-fluorophenoxy)-3-methylphenyl]pyrazol-4-yl]-[6-fluoro-5-(1-propan-2-ylpiperidin-4-yl)oxy-1H-indol-2-yl] methanone]
7.17	6.72	8.77	Cc1cc(-n2ncc(C(=O)c3cc4cc(OC5CCN(C(C)C)CC5)c(Cl)cc4[nH]3)c2N)ccc1Oc1ccccc1F [Example 5-1-196, [5-amino-1-[4-(2-fluorophenoxy)-3-methylphenyl]pyrazol-4-yl]-[6-chloro-5-(1-propan-2-ylpiperidin-4-yl)oxy-1H-indol-2-yl] methanone]
8.08	8.11	9.06	Cc1cc(Oc2ccccc2F)ccc1-n1ncc(C(=O)c2cc3cc(OC4CCN(C(C)C)CC4)c(Cl)cc3[nH]2)c1N [Example 5-1-197, [5-amino-1-[4-(2-fluorophenoxy)-2-methylphenyl]pyrazol-4-yl]-[6-chloro-5-(1-propan-2-ylpiperidin-4-yl)oxy-1H-indol-2-yl] methanone]
7.44	6.57	8.82	Cc1cc2cc(C(=O)c3cnn(-c4ccc(Oc5ccccc5F)c(F)c4)c3N)[nH]c2cc1NS(C)(=O)=O [Example 5-1-198, N-[2-[5-amino-1-[3-fluoro-4-(2-fluorophenoxy)phenyl]pyrazole-4-carbonyl]-5-methyl-1H-indol-6-yl]methanesulfonamide]
7.43	7.11	8.57	Cc1cc2cc(C(=O)c3cnn(-c4cc(F)c(Oc5ccccc5F)cc4C)c3N)[nH]c2cc1NS(C)(=O)=O [Example 5-1-199, N-[2-[5-amino-1-[5-fluoro-4-(2-fluorophenoxy)-2-methylphenyl]pyrazole-4-carbonyl]-5-methyl-1H-indol-6-yl]methanesulfonamide]
